Measurements published in the supplement of paper PMC10307832.

Columns and labels:
Experiment in all cases: relative viability (nuclei count vs DMSO), 5 days (fraction); higher = more cells survive
[1] = compound: Cn1nnc2c(C(N)=O)ncn2c1=O [Temozolomide] + CC(C)C[C@H](NC(=O)[C@H](Cc1ccccc1)NC(=O)c1cnccn1)B(O)O [Bortezomib] (partner 0.002 µM)
How it was run: (§1)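 Nuclei were stained with Hoechst during a one-step fixation (final 0.05% Triton X-100, 1% formaldehyde, 1 ug/ml Hoechst) carried out 5 days after dosing, then counted on 4× images. The cells, lung cancer lines in 1536-well plates, had been dosed by pin tool the day after seeding with one drug alone or a fixed anchor-drug dose plus five library-drug doses (not always all listed) in √10 steps. Relative viability is the nuclei count in treated wells divided by that in vehicle wells, and each value is the median of duplicate plates.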

[2] = compound: Cn1nnc2c(C(N)=O)ncn2c1=O [Temozolomide] + CC(=O)c1c(C)c2cnc(Nc3ccc(N4CCNCC4)cn3)nc2n(C2CCCC2)c1=O [Palbociclib] (partner 0.5 µM)
How it was run: as §1

[3] = compound: C[C@@H](C(=O)N[C@@H](C1CCCCC1)C(=O)N2CCC[C@H]2C(=O)N[C@@H]3[C@@H](CC4=CC=CC=C34)OCC#CC#CCO[C@@H]5CC6=CC=CC=C6[C@@H]5NC(=O)[C@@H]7CCCN7C(=O)[C@H](C8CCCCC8)NC(=O)[C@H](C)NC)NC [AZD5582] + Cc1nc(NC(=O)N2CCC[C@H]2C(N)=O)sc1-c1ccnc(C(C)(C)C(F)(F)F)c1 [Alpelisib] (partner 2 µM)
How it was run: as §1

[4] = compound: Cn1nnc2c(C(N)=O)ncn2c1=O [Temozolomide] + NC(=O)Nc1cc(-c2cccc(F)c2)sc1C(=O)N[C@H]1CCCNC1 [AZD7762] (partner 0.2 µM)
How it was run: as §1

Cell Line | relative viability ([1]; first compound 0.2 µM) | relative viability ([1]; first compound 0.6325 µM) | relative viability ([1]; first compound 2 µM) | relative viability ([1]; first compound 6.325 µM) | relative viability ([1]; first compound 20 µM) | relative viability ([2]; first compound 0.2 µM) | relative viability ([2]; first compound 0.6325 µM) | relative viability ([2]; first compound 2 µM) | relative viability ([2]; first compound 6.325 µM) | relative viability ([2]; first compound 20 µM) | relative viability ([3]; first compound 0.001581 µM) | relative viability ([3]; first compound 0.005 µM) | relative viability ([3]; first compound 0.01581 µM) | relative viability ([3]; first compound 0.05 µM) | relative viability ([4]; first compound 0.2 µM) | relative viability ([4]; first compound 0.6325 µM) | relative viability ([4]; first compound 2 µM) | relative viability ([4]; first compound 6.325 µM) | relative viability ([4]; first compound 20 µM)
NCI-H2085 | 0.992 | 1.26 | 1.04 | 1.01 | 0.888 | 0.487 | 0.487 | 0.457 | 0.454 | 0.449 | 1 | 0.987 | 0.928 | 1.01 | 0.878 | 1.03 | 0.938 | 0.928 | 0.972
HOP-62 | 0.801 | 0.88 | 0.911 | 0.59 | 0.932 | 0.545 | 0.488 | 0.473 | 0.375 | 0.447 | 0.997 | 0.934 | 0.87 | 1.25 | 0.82 | 0.512 | 0.635 | 0.503 | 0.742
NCI-H2126 | 1.13 | 1.15 | 1.1 | 1.1 | 1.08 | 0.347 | 0.332 | 0.349 | 0.355 | 0.345 | 0.785 | 0.766 | 0.695 | 0.762 | 1.05 | 1.02 | 1.02 | 0.959 | 1.11
LXF-289 | 1.01 | 1.03 | 1.05 | 0.928 | 0.934 | 0.616 | 0.626 | 0.606 | 0.579 | 0.564 | 1 | 1.04 | 0.988 | 1.07 | 1.12 | 1.08 | 1.08 | 1.06 | 1.07
HCC-366 | 1.07 | 1.07 | 1.1 | 1.08 | 1.06 | 0.449 | 0.467 | 0.341 | 0.396 | 0.369 | 0.363 | 0.625 | 0.389 | 0.774 | 0.286 | 0.258 | 0.376 | 0.311 | 0.338
RERF-LC-KJ | 1.13 | 1.3 | 1.17 | 1.09 | 1.08 | 1.02 | 1.1 | 1.11 | 1.17 | 1.02 |  | 0.532 | 0.781 | 0.639 | 0.977 | 0.926 | 0.989 | 0.953 | 1.01
HCC-44 | 0.938 | 0.855 | 0.869 | 0.827 | 0.988 | 0.984 | 0.943 | 0.921 | 0.988 | 0.981 | 0.683 | 0.525 | 0.738 | 0.368 | 1.03 | 1 | 1.03 | 1.11 | 1.05
PC-3 [JPC-3] | 0.844 | 0.781 | 0.874 | 0.791 | 0.418 | 0.541 | 0.554 | 0.543 | 0.545 | 0.433 | 0.889 | 0.966 | 0.999 | 0.703 | 0.775 | 0.916 | 0.825 | 0.797 | 0.529
NCI-H23 | 1.46 | 1.19 | 0.993 | 0.968 | 0.993 | 0.59 | 0.55 | 0.504 | 0.403 | 0.433 | 0.446 | 0.456 | 0.7 | 0.419 | 0.247 | 0.278 | 0.282 | 0.181 | 0.255
LU99A | 1.28 | 1.17 | 1.07 | 1.06 | 1.01 | 0.447 | 0.42 | 0.472 | 0.387 | 0.388 | 0.554 | 0.594 | 0.499 | 0.611 | 0.377 | 0.355 | 0.353 | 0.421 | 0.43
LCLC-97TM1 | 1.48 | 0.594 | 0.749 | 0.68 | 0.687 | 0.272 | 0.237 | 0.197 | 0.231 | 0.191 |  | 0.269 | 0.226 | 0.23 | 0.352 | 0.293 |  | 0.168 | 0.253
LCLC-103H | 1.13 | 1.09 | 1.04 | 1.08 | 1.01 | 0.503 | 0.514 | 0.496 | 0.608 | 0.413 | 0.97 | 1.23 | 0.471 | 0.64 | 0.849 | 0.758 | 0.902 | 0.678 | 0.771
HCC-78 |  | 0.524 | 0.537 | 0.515 | 0.567 | 0.474 | 0.475 | 0.458 | 0.473 | 0.487 | 0.298 | 0.395 | 0.307 | 0.3 | 0.668 | 0.568 | 0.899 |  | 0.566
NCI-H838 | 0.829 | 0.929 | 1.1 | 0.847 | 0.832 | 0.23 | 0.237 | 0.226 | 0.25 | 0.252 | 0.89 | 0.97 | 0.907 | 1.18 | 0.914 | 0.977 | 0.961 | 0.89 | 0.881
HCC-15 | 1.02 | 1.06 | 1.05 | 0.975 | 1.1 | 0.778 | 0.717 | 0.805 | 0.691 | 0.706 | 0.771 | 0.648 | 0.922 | 0.555 | 1.53 | 1.18 | 1.29 | 1.32 | 1.4
EPLC-272H | 1.02 | 1.05 | 0.91 | 0.832 | 0.805 | 0.319 | 0.337 | 0.356 | 0.321 | 0.299 | 0.635 | 0.506 | 0.136 | 0.217 | 0.194 | 0.259 | 0.418 | 0.217 | 0.208
HARA | 1.26 | 1.16 | 1.24 | 1.14 | 1.05 |  | 0.307 | 0.303 | 0.302 | 0.233 | 0.75 | 0.783 | 0.866 | 0.701 | 0.358 | 0.322 | 0.299 | 0.395 | 0.305
